Laboratory results published in patent publication US12427146B2, “C-terminal SRC kinase inhibitors” (INVENTISBIO CO., LTD., priority 2018, dated 2025).

Assays:
[1] = molecular target: CSK protein (Homo sapiens (Human), UniProt P41240); experiment: CSK Inhibition Assay; assay type: biochemical
Outline: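 Compounds, 11-point 1:3 dilutions in DMSO, were preincubated 30 min at RT with CSK and fluorescent peptide substrate, then the reaction was started with ATP (4 μM solution) and run 90 min at 25 °C before EDTA stop. Phospho-peptide conversion was read by mobility-shift separation (Caliper EZ Reader II) and converted to % inhibition for IC50.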

[2] = molecular target: LCK protein (Homo sapiens (Human), UniProt P06239); experiment: LCK Inhibition Assay; assay type: biochemical
Sequence of LCK protein (P06239 whole entry): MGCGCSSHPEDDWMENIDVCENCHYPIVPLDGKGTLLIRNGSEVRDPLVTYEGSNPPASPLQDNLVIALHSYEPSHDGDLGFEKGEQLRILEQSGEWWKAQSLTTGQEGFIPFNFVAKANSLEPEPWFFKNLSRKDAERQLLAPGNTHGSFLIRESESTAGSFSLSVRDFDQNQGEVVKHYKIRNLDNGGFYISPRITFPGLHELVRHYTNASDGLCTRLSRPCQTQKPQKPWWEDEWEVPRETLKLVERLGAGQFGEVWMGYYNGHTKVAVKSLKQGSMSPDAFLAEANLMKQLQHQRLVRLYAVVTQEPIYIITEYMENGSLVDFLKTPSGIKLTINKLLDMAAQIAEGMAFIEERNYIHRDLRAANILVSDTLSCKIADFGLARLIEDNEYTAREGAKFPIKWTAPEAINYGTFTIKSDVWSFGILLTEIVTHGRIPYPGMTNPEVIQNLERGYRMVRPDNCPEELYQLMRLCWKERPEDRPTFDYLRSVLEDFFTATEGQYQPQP
Outline: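 Recombinant LCK (0.50 nM) preincubated 30 min at RT with compound and FLPeptide4 (2 μM) in 50 mM HEPES pH 7.5, 10 mM MgCl2, Brij-35, DTT, BSA; reaction started with ATP (400 μM solution added), run 90 min at 25 °C, EDTA-stopped. Phospho/non-phospho peptide separated by mobility shift; IC50 from % inhibition of conversion, 11-point 1:3 series.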

| IC50 [1] [nM] | IC50 [2] [nM] | SMILES |
| --- | --- | --- |
| 63.3 | > 1000 | Nc1nccc(-c2sc(-c3ccc(=O)[nH]c3)nc2-c2cccc(NS(=O)(=O)c3c(F)cccc3F)c2F)n1 [compound 28] |
| 42.9 | > 1000 | CNc1nccc(-c2sc(-c3ccc(F)cn3)nc2-c2cccc(NS(=O)(=O)c3c(F)cccc3F)c2F)n1 [compound 34] |
| 22.3 | > 1000 | Cc1ccc(F)c(S(=O)(=O)Nc2cccc(-c3nc(-c4ccccc4)sc3-c3ccnc(N)n3)c2F)c1F [compound 36] |
| 14.9 | 100 to 1000 | O=S(=O)(Nc1cccc(-c2nc(-c3ccccc3)sc2-c2ccnc(Nc3cncnc3)n2)c1F)c1c(F)cccc1F [compound 38] |
| 33.9 | > 1000 | Nc1nccc(-c2sc(-c3cnccn3)nc2-c2cccc(NS(=O)(=O)c3c(F)cccc3F)c2F)n1 [compound 39] |
| 41.3 | > 1000 | CNC(=O)N[C@@H](C)CNc1nccc(-c2sc(-c3ccccc3)nc2-c2cccc(NS(=O)(=O)c3c(F)cccc3F)c2F)n1 [compound 45] |
| 75.8 | > 1000 | Nc1nccc(-c2sc(-c3cncc(C4CC4)c3)nc2-c2cccc(NS(=O)(=O)c3c(F)cccc3F)c2F)n1 [compound 48] |
| 76.3 | > 1000 | COc1ccc(F)c(S(=O)(=O)Nc2cccc(-c3nc(-c4cncc(F)c4)sc3-c3ccnc(N)n3)c2F)c1F [compound 50] |
| 77 | > 1000 | Nc1nccc(-c2c(-c3cccc(NS(=O)(=O)c4c(F)cccc4F)c3F)nc3ccccn23)n1 [compound 90] |
| 52.7 | > 1000 | COc1ccn2c(-c3ccnc(N)n3)c(-c3cccc(NS(=O)(=O)c4c(F)cccc4F)c3F)nc2c1 [compound 91] |
| 2.5 | < 100 | CN1CCN(c2ccc(Nc3nccc(-c4cn(C5CCCCC5)nc4-c4cccc(NS(=O)(=O)c5c(F)cccc5F)c4F)n3)cn2)CC1 [compound 108] |
| 30.3 | > 1000 | Nc1nccc(-c2sc(N3CCCC3=O)nc2-c2cccc(NS(=O)(=O)c3c(F)cccc3F)c2F)n1 [compound 112] |
| 2.8 | < 100 | CC(C)(C)c1nc(-c2cccc(NS(=O)(=O)c3c(F)cccc3F)c2F)c(-c2ccnc(Nc3ccc(N4CCOCC4)nc3)n2)s1 [compound 118] |
| 7.4 | 100 to 1000 | CCN(CC)c1nc(-c2cccc(NS(=O)(=O)c3c(F)cccc3F)c2F)c(-c2ccnc(NC)n2)s1 [compound 153] |
| 12.5 | 100 to 1000 | CNc1nccc(-c2sc(-c3cncc(F)c3)nc2-c2cc(C)cc(NS(=O)(=O)c3c(F)cccc3F)c2F)n1 [compound 154] |
